Active and inactive are the calls of the source. The calls are words filed in the database; no cut-off is given here.

Holding throughout (format): cell-based
The species entered for assay [1] is Rattus norvegicus. In words: Inhibition of secretory phospholipase A2 in rat renal mesangial cells assessed as suppression of IL-1beta/forskolin stimulated PGE2 formation preincubated for 20 mins prior to IL-1beta/forskolin challenge at 1 to 10 uM measured after 24 hrs by PGE2-specific ELISA. On the technique in general: In an ELISA, binding on a coated surface is turned into a signal by an enzyme label.

Assay [2] is filed under the species Rattus norvegicus. In words: Inhibition of secretory phospholipase A2 in rat renal mesangial cells assessed as suppression of IL-1beta/forskolin stimulated PGE2 formation preincubated for 20 mins prior to IL-1beta/forskolin challenge at 3 and 10 uM measured after 24 hrs by PGE2-specific ELISA.
The species named for assay [3] is Rattus norvegicus. The assay is described as follows: Inhibition of secretory phospholipase A2 in rat renal mesangial cells assessed as suppression of IL-1beta/forskolin stimulated PGE2 formation preincubated for 20 mins prior to IL-1beta/forskolin challenge at 1 uM measured after 24 hrs by PGE2-specific ELISA.
The species entered for assay [4] is Rattus norvegicus. In words: Inhibition of secretory phospholipase A2 in rat renal mesangial cells assessed as suppression of IL-1beta/forskolin stimulated PGE2 formation preincubated for 20 mins prior to IL-1beta/forskolin challenge at 10 uM measured after 24 hrs by PGE2-specific ELISA.

With `O=C(O)CC[C@@H](Cc1ccc(OCc2ccccc2)cc1)NC(=O)CCCCCCc1ccccc1`, in assay [1], the inhibition entry is “Active”. For `CCCC[C@H](CCC(=O)O)NC(=O)CCCCCCc1ccccc1`, the inhibition result in assay [1] was “Active”.

For the compound `CCCC[C@H](CCC(=O)O)NC(=O)CCCCNC(=O)c1ccccc1`, the inhibition result in assay [2] was “Active”. The inhibition result in assay [3] is “inactive”.

Turning to `CC(C)[C@H](NC(=O)C(=O)CCCCc1ccccc1)C(=O)O`, the inhibition result in assay [1] is “Active”. Turning to `CC(C)[C@H](NC(=O)C(=O)c1ccc2ccccc2c1)C(=O)O`, the inhibition entry in assay [2] was “Active”. Further, in assay [3], the inhibition entry is “inactive”. Take `CCCCCCCCCCCCCCCCC(=O)C(=O)N[C@H](C(=O)O)C(C)C`: the inhibition result in assay [1] was “Active”. As for `CCCC[C@H](CCC(=O)O)NC(=O)CCCCC(=O)Nc1ccccc1`, the inhibition result in assay [2] is “Active”. In addition, in assay [3], the inhibition result is “inactive”. Turning to `CCCCCCCCCCCCCCC(=O)C(=O)N[C@@H](CC(C)C)C(=O)O`, the inhibition result in assay [1] was “Active”. Turning to `CCCCCCCCCCCCCCC(=O)C(=O)N[C@@H](CCCC)CCCC(=O)O`, the inhibition entry in assay [4] is “inactive”. As for `O=C(CCCCc1ccccc1)C(F)(F)C(F)(F)F`, the inhibition result in assay [4] is “inactive”. Regarding `CCCC[C@H](CCC(=O)O)NC(=O)CCCCCOc1ccccc1`, the inhibition result in assay [2] was “Active”. In addition, the inhibition result in assay [3] was “inactive”. With `CCCC[C@H](CCC(=O)O)NC(=O)CCCC(=O)NCc1ccccc1`, the inhibition result in assay [1] is “Active”. In the case of `CCCCCCCCCCCCCCC(=O)C(=O)NCCCC(=O)OCC`, the inhibition entry in assay [4] was “inactive”. With `CCCC[C@H](CCC(=O)O)NC(=O)CCCCNC(=O)c1ccc(OC)cc1`, the inhibition entry in assay [1] was “Active”. On the same count and under the same terms, to `CC(C)[C@H](NC(=O)C(=O)CCCCc1ccc2ccccc2c1)C(=O)O` belongs “Active”.
